{
  "source": "paper PMC6177136",
  "about": "“Hybrid topoisomerase I and HDAC inhibitors as dual action anticancer agents” (PLoS ONE, 2018)",
  "key": {"MM432": {"test_system": "MM432", "assay": "Cytotoxicity assay, primary mesothelioma MM432", "assay_type": "cell-based, Human", "settings": "Homo sapiens; sarcomatoid, 72 h, SBR assay; read-out: IC50 ± SD MM432"}, "A2780": {"test_system": "A2780", "assay": "Cytotoxicity assay (SRB, 72 h) A2780", "assay_type": "cell-based, Human", "settings": "Homo sapiens, A2780, read-out: IC50 ± SD A2780"}},
  "data": [
    {"smiles": "CC[C@@]1(O)C(=O)OCc2c1cc1n(c2=O)Cc2c-1nc1ccc(O)cc1c2C=NOCCCCCC(=O)NO", "note": "[Compound 3d, 6-(10-hydroxycamptothecin-7-ylmethyleneaminooxy)-hexanoic acid hydroxyamide]", "values": [
      {"measurement": "IC50", "setting": "MM432", "value": "160 ± 30", "unit": "nM"},
      {"measurement": "IC50", "setting": "A2780", "value": "270 ± 80", "unit": "nM"}
    ]}
  ]
}
